This note sets out measurements from patent US9938269B2, “Inhibitor compounds of phosphodiesterase type 10A” (ABBVIE INC., priority 2011, dated 2018).

For one series, the target named is T1, PDE10A (human) (Homo sapiens, UniProt Q9Y233).
T1 construct: purchased BPS Bioscience
The series is described as follows: Measurement of PDE activity (HTRF cAMP kit), human PDE10A. The format is biochemical. The settings on record: PDE enzymatic reaction, substrate 20 nM for PDE10, 60 minutes at 29 C. Put shortly:
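HTRF detection of cAMP left after hydrolysis, expressed as percent of uninhibited control to derive IC50. Reaction: serially diluted inhibitor mixed with recombinant enzyme, started with 20 nM cAMP, 60 min at 29 °C in Tris-HCl pH 7.5 buffer containing MgCl2 and BSA.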
On the technique in general: In TR-FRET formats the signal depends on donor and acceptor labels being close together.

The nature of series [1]: Determination of the microsomal half-life, rat liver microsomes. The settings on record: rat, liver microsomes, pH 7.4. Background: Liver microsomes are a subcellular fraction often used to study metabolism.
Series [2] can be described thus: Determination of the microsomal half-life, human liver microsomes. The settings on record: human, liver microsomes, pH 7.4.

Where a name gives a salt, the structure may show the parent alone. Where only a bound is given, the exact number is not on record here.

T1 sequence (Q9Y233 whole entry): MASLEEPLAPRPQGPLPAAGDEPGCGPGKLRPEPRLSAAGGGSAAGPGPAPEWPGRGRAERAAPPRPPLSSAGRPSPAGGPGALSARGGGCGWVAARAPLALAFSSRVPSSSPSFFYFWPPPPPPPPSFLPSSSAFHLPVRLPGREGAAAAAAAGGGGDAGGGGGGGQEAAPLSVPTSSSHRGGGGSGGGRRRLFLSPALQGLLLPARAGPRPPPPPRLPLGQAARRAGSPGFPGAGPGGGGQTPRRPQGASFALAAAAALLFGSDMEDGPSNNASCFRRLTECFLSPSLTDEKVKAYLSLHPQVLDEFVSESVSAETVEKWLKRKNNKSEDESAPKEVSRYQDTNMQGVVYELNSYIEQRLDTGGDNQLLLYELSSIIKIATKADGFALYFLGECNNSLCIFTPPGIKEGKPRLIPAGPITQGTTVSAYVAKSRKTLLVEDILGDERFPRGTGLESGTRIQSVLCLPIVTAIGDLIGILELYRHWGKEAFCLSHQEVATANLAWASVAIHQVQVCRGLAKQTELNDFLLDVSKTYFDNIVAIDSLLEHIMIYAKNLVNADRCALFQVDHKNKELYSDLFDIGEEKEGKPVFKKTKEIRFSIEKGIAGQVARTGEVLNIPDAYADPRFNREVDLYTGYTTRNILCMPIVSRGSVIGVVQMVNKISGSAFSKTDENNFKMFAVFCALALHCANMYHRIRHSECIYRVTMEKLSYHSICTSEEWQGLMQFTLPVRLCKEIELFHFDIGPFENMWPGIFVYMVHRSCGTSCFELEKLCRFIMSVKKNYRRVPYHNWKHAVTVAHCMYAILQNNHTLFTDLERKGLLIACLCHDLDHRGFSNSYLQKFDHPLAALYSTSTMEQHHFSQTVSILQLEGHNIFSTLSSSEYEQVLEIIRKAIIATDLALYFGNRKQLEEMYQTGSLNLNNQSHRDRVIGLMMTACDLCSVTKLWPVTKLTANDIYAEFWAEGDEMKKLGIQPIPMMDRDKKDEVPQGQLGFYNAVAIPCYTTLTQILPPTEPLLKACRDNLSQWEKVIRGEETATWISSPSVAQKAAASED

As usually defined, the IC50 is the concentration that inhibits the measured activity by half. Low readings indicate greater potency, high ones weaker potency. What is called microsomal CLint is a measure of how fast metabolising enzymes remove a compound, apart from limits set by blood flow. On PDE10A (human), `Cn1nccc1-c1ccnc2c1CN(CCc1ccc3ccccc3n1)C2=O` [compound 459, 4-(2-Methyl-2H-pyrazol-3-yl)-6-(2-quinolin-2-yl-ethyl)-5,6-dihydro-pyrrolo[3,4-b]pyridin-7-one trifluoroacetate] returned an IC50 of 200 to 500 nM. Moreover, the microsomal CLint at 0.5 μM in series [1] and in series [2] was less than 100 µL/min/mg throughout.

`O=C1c2c(cccc2-c2ccncc2)CN1CCc1nc2ccccc2n1C(F)F` [compound 450, 2-[2-(1-Difluoromethyl-1H-benzoimidazol-2-yl)-ethyl]-7-pyridin-4-yl-2,3-dihydro-isoindol-1-one trifluoroacetate] returned an IC50 on PDE10A (human) of 200 to 500 nM. Besides, the results for the microsomal CLint at 0.5 μM in series [1] and in series [2] were 100 to 220 µL/min/mg and more than 220 µL/min/mg, respectively.

`O=C1c2c(cccc2N2CCS(=O)(=O)CC2)CN1CCc1nc2ccccc2[nH]1` [Example 175, 2-[2-(1H-Benzoimidazol-2-yl)-ethyl]-7-(1,1-dioxo-thiomorpholin-4-yl)-2,3-dihydro-isoindol-1-one] returned an IC50 at PDE10A (human) of 100 to 200 nM. Further, the microsomal CLint at 0.5 μM in series [1] and in series [2] was less than 100 µL/min/mg throughout.

`COc1ccc(-c2ccnc3c2C(=O)N(CCc2ccc4ccccc4n2)C3)cc1` [Example 161, 4-(4-Methoxy-phenyl)-6-(2-quinolin-2-yl-ethyl)-6,7-dihydro-pyrrolo[3,4-b]pyridin-5-one] came in with an IC50 on PDE10A (human) of less than 100 nM. Also, the microsomal CLint at 0.5 μM was more than 220 µL/min/mg in series [1] and 100 to 220 µL/min/mg in series [2].

The molecule `O=C1c2c(cncc2-c2ccncc2)CN1CCc1ccc2ccccc2n1` [Example 2, 7-Pyridin-4-yl-2-(2-quinolin-2-yl-ethyl)-2,3-dihydro-pyrrolo[3,4-c]pyridin-1-one] displayed an IC50 at PDE10A (human) of less than 100 nM. For the same molecule, the microsomal CLint at 0.5 μM in series [1] and in series [2] was 100 to 220 µL/min/mg throughout.

In turn, `COc1ccc(-c2ccncc2)c2c1CN(CCc1cn3ccccc3n1)C2=O` [Example 374, 2-(2-Imidazo[1,2-a]pyridin-2-yl-ethyl)-4-methoxy-7-pyridin-4-yl-2,3-dihydro-isoindol-1-one] registered an IC50 against PDE10A (human) of less than 100 nM. For the same molecule, the intrinsic clearance (microsomal CLint) at 0.5 μM in series [1] and in series [2] was less than 100 µL/min/mg throughout.

Molecule `O=C1c2c(cccc2-c2cn[nH]c2)CN1CCc1cn2ccccc2n1` [Example 242, 2-(2-Imidazo[1,2-a]pyridin-2-yl-ethyl)-7-(1H-pyrazol-4-yl)-2,3-dihydro-isoindol-1-one] registered an IC50 against PDE10A (human) of 100 to 200 nM. Further, the microsomal CLint at 0.5 μM in series [1] is 100 to 220 µL/min/mg; in series [2], less than 100 µL/min/mg.

`COc1ccc(NC2COC2)c2c1CN(CCc1nc3ccccc3n1C)C2=O` [compound 411, 4-Methoxy-2-[2-(1-methyl-1H-benzoimidazol-2-yl)-ethyl]-7-(oxetan-3-ylamino)-2,3-dihydro-isoindol-1-one]: the IC50 against PDE10A (human) was less than 100 nM. Moreover, the intrinsic clearance (microsomal CLint) at 0.5 μM in series [1] was 100 to 220 µL/min/mg; in series [2], more than 220 µL/min/mg.

In the case of `O=C1c2c(cccc2N2CCOCC2)CN1CCc1ccc2ccccc2n1` [Example 99, 7-Morpholin-4-yl-2-(2-quinolin-2-yl-ethyl)-2,3-dihydro-isoindol-1-one], the IC50 against PDE10A (human) was less than 100 nM. In addition, the figures for the microsomal CLint at 0.5 μM in series [1] and in series [2] were less than 100 µL/min/mg and 100 to 220 µL/min/mg, respectively.

`O=C1c2c(NC3COC3)ccnc2CN1CCc1nc2ccccc2s1` [Example 376, 6-(2-Benzothiazol-2-yl-ethyl)-4-(oxetan-3-ylamino)-6,7-dihydro-pyrrolo[3,4-b]pyridin-5-one] returned an IC50 on PDE10A (human) of less than 100 nM. Also, the microsomal CLint at 0.5 μM in series [1] and in series [2] was less than 100 µL/min/mg throughout.

As for `O=C1c2c(-c3ccncc3)ccnc2CN1CCc1ccc(-c2ccccc2)cn1` [compound 488, 6-[2-(5-Phenyl-2-pyridyl)ethyl]-4-(4-pyridyl)-7H-pyrrolo[3,4-b]pyridin-5-one trifluoroacetate], on PDE10A (human), the IC50 is 200 to 500 nM. The figures for the microsomal CLint at 0.5 μM in series [1] and in series [2] were more than 220 µL/min/mg and 100 to 220 µL/min/mg, respectively.

In turn, `Cc1cnc(CCN2Cc3nccc(-c4ccncc4)c3C2=O)cc1C` [compound 507, 6-[2-(4,5-Dimethyl-2-pyridyl)ethyl]-4-(4-pyridyl)-7H-pyrrolo[3,4-b]pyridin-5-one trifluoroacetate] displayed an IC50 against PDE10A (human) of 200 to 500 nM. Moreover, the values for the microsomal CLint at 0.5 μM in series [1] and in series [2] were more than 220 µL/min/mg and 100 to 220 µL/min/mg, respectively.

In the case of `O=C1c2c(N3CCNCC3)ccnc2CN1CCc1ccc2ccccc2n1` [Example 163, 4-piperazin-1-yl-6-(2-quinolin-2-yl-ethyl)-6,7-dihydro-pyrrolo[3,4-b]pyridin-5-one], on PDE10A (human), the IC50 was less than 100 nM. Besides, the microsomal CLint at 0.5 μM in series [1] and in series [2] was less than 100 µL/min/mg throughout.

`O=C1c2c(cccc2N2C[C@@H]3C[C@H]2CN3)CN1CCc1ccc2ccccc2n1` [Example 101, 7-(1S,4S)-2,5-Diaza-bicyclo[2.2.1]hept-2-yl-2-(2-quinolin-2-yl-ethyl)-2,3-dihydro-isoindol-1-one] had an IC50 on PDE10A (human) of 200 to 500 nM. In addition, the microsomal CLint at 0.5 μM in series [1] is more than 220 µL/min/mg; in series [2], less than 100 µL/min/mg.

`Cc1ccc(CCN2Cc3nccc(N4CCS(=O)(=O)CC4)c3C2=O)nc1` [compound 479, 4-(1,1-Dioxo-1,4-thiazinan-4-yl)-6-[2-(5-methyl-2-pyridyl)ethyl]-7H-pyrrolo[3,4-b]pyridin-5-one trifluoroacetate] displayed a 50% inhibitory concentration (IC50) at PDE10A (human) of 200 to 500 nM. Moreover, the microsomal CLint at 0.5 μM in series [1] and in series [2] was less than 100 µL/min/mg each time.

The molecule `O=C1Cc2ccc(-c3ccnc4c3C(=O)N(CCc3ccc5ccccc5n3)C4)cc2N1` [Example 165, 4-(2-oxo-2,3-dihydro-1H-indol-6-yl)-6-(2-quinolin-2-yl-ethyl)-6,7-dihydro-pyrrolo[3,4-b]pyridin-5-one] had an IC50 on PDE10A (human) of less than 100 nM. In addition, the microsomal CLint at 0.5 μM in series [1] and in series [2] was less than 100 µL/min/mg each time.

For `COc1ccc(-c2cccnc2)c2c1CN(CCc1cn3ccccc3n1)C2=O` [Example 218, 2-(2-Imidazo[1,2-a]pyridin-2-yl-ethyl)-4-methoxy-7-pyridin-3-yl-2,3-dihydro-isoindol-1-one trifluoroacetate], the 50% inhibitory concentration (IC50) against PDE10A (human) is less than 100 nM. The intrinsic metabolic clearance (microsomal CLint) at 0.5 μM in series [1] and in series [2] was less than 100 µL/min/mg in each case.

The molecule `O=C1c2c(-c3ccncc3)ccnc2CN1CCc1nc2ccccc2s1` [Example 375, 6-(2-Benzothiazol-2-yl-ethyl)-4-pyridin-4-yl-6,7-dihydro-pyrrolo[3,4-b]pyridin-5-one] came in with a half-maximal inhibitory concentration (IC50) at PDE10A (human) of less than 100 nM. Also, the microsomal CLint at 0.5 μM in series [1] and in series [2] was less than 100 µL/min/mg throughout.

On PDE10A (human), `O=C1c2c(N3CCS(=O)(=O)CC3)ccnc2CN1CCc1ccc2ccccc2n1` [Example 137, 4-(1,1-Dioxo-thiomorpholin-4-yl)-6-(2-quinolin-2-yl-ethyl)-6,7-dihydro-pyrrolo[3,4-b]pyridin-5-one] had an IC50 of less than 100 nM. The intrinsic clearance (microsomal CLint) at 0.5 μM in series [1] and in series [2] was less than 100 µL/min/mg each time.

In turn, `O=C1c2c(-c3cscn3)ccnc2CN1CCc1nc2ccccc2s1` [compound 436, 6-[2-(1,3-Benzothiazol-2-yl)ethyl]-4-thiazol-4-yl-7H-pyrrolo[3,4-b]pyridin-5-one] came in with an IC50 at PDE10A (human) of 200 to 500 nM. The microsomal CLint at 0.5 μM in series [1] and in series [2] was less than 100 µL/min/mg each time.

As for `CNCc1ccc(-c2cccc3c2C(=O)N(CCc2ccc4ccccc4n2)C3)cc1` [Example 194, 7-(4-Methylaminomethyl-phenyl)-2-(2-quinolin-2-yl-ethyl)-2,3-dihydro-isoindol-1-one], the IC50 against PDE10A (human) is 200 to 500 nM. The microsomal CLint at 0.5 μM in series [1] and in series [2] was 100 to 220 µL/min/mg throughout.

Turning to `O=C1c2c(N3CCOCC3)ccc(F)c2CN1CCc1cn2ccccc2n1` [Example 295, 4-Fluoro-2-(2-imidazo[1,2-a]pyridin-2-yl-ethyl)-7-morpholin-4-yl-2,3-dihydro-isoindol-1-one], the IC50 against PDE10A (human) was less than 100 nM. Moreover, the microsomal CLint at 0.5 μM in series [1] and in series [2] was less than 100 µL/min/mg each time.

Molecule `CCc1ccn2cc(CCN3Cc4nccc(N5CCOCC5)c4C3=O)nc2c1` [compound 555, 6-[2-(7-Ethylimidazo[1,2-a]pyridin-2-yl)ethyl]-4-morpholino-7H-pyrrolo[3,4-b]pyridin-5-one] showed an IC50 at PDE10A (human) of less than 100 nM. Further, the intrinsic metabolic clearance (microsomal CLint) at 0.5 μM in series [1] is less than 100 µL/min/mg; in series [2] it was 100 to 220 µL/min/mg.

On PDE10A (human), `O=C1c2c(-c3cc[nH]n3)ccnc2CN1CCc1cn2ccccc2n1` [compound 413, 6-(2-Imidazo[1,2-a]pyridin-2-yl-ethyl)-4-(1H-pyrazol-3-yl)-6,7-dihydro-pyrrolo[3,4-b]pyridin-5-one] yielded an IC50 of less than 100 nM. The microsomal CLint at 0.5 μM in series [1] and in series [2] was less than 100 µL/min/mg each time.

On to `O=C1c2c(-c3ccc(F)cc3)ccc(F)c2CN1CCc1cn2ccccc2n1` [Example 379, 4-Fluoro-7-(4-fluoro-phenyl)-2-(2-imidazol[1,2-a]pyridin-2-yl-ethyl)-2,3-dihydro-isoindol-1-one], for which the half-maximal inhibitory concentration (IC50) against PDE10A (human) lay within 100 to 200 nM. The results for the microsomal CLint at 0.5 μM in series [1] and in series [2] were more than 220 µL/min/mg and 100 to 220 µL/min/mg, respectively.

For `O=C1c2c(cccc2-c2cncnc2)CN1CCc1cn2ccccc2n1` [Example 238, 2-(2-Imidazo[1,2-a]pyridin-2-yl-ethyl)-7-pyrimidin-5-yl-2,3-dihydro-isoindol-1-one], at PDE10A (human), the IC50 was less than 100 nM. The microsomal CLint at 0.5 μM was less than 100 µL/min/mg in series [1] and 100 to 220 µL/min/mg in series [2].
